The structures appear in SMILES notation. pIC50: −log10 of the molar value. Read-outs that look alike come from different tables or passages of the source.

In data set [1] the target is T1, Fc portion of human IgG (binding of protein A to human IgG).
T1 construct: fused on or other part: Horseradish peroxidase chemically conjugated to the IgG (HRP-IgG)
Nature of the data set: Competitive protein A binding ELISA. The following applies: for IC50: Table 1; for pIC50: Table 2, n = 5 or 6. As to the method: As described above, this assay evaluates the ability of the exemplified compounds to mimic protein A. Such compounds can bind to the Fc portion of human IgG as ascertained by the inhibition of binding of protein A to human IgG. The competitive protein A binding ELISA assay was performed on a 96-well plate Maxisorp surface to enhance the binding of protein A to the bottom of the plate. The wells were coated with 100 μL of protein A (0.8 μg) and incubated overnight at 4° C. After incubation, unbound protein A was removed by three washes with phosphate buffer saline (PBS). The plate was then incubated with 100 μL/well of a 2% solution of bovine serum albumin (BSA) for 1 h at 37° C. to block non specific protein binding. After incubation, the plate was washed to times with PBS. 50 μL of compound or protein A, diluted in PBS or PBS-20% DMSO at appropriate concentration, were added to the wells followed by addition of 50 μL of peroxidase-conjugated human IgG (HRP-IgG). After 1 h incubation at 37° C., the plate was washed free times with PBS to remove unbound HRP-IgG. Bound HRP-IgG was detected by incubation with 100 μL of 2,2′-Azino-di[3-ethylbenzothiazoline sulfonate]diammonium salt crystals (ABTS) solution for 20 min in the dark at room temperature. The plate was then read at 405 nm on a EL 800, universal Microplate reader (Bio-Tek). Data was analyzed in Microsoft Excel and the concentration of compound which inhibits 50% binding of protein A (IC50) was calculated using Prism software.
Table 1 represents the IC50 of compounds tested in the competitive protein A binding ELISA assay, which consists of a side-by-side analysis in PBS and PBS-20% DMSO. DMSO was used to increase the solubility of some of the compounds.

In data set [2] the test system is peripheral blood mononuclear leukocytes (PBML). Nature of the data set: PBML protein synthesis (leucine). It is filed as cell-based, human. The note with it: Homo sapiens, Leukocyte. From the text:
(§1) PBML were obtained from the peripheral blood of healthy volunteers. Blood was submitted to gradient centrifugation with Lympholyte-poly (Cedarlane, Hornby, Canada). The layer, which contains the mononuclear leukocytes, was collected and the cells washed three times in PBS. Cells were then suspended in RPMI (Gibco, Burlington, Canada) supplemented with […] (cyclone, Logan USA). Viability was greater than 99% as determined by trypan blue exclusion.
(§2) PBML were resuspended at 2×10^6 cells mL. 100 μL of PBML (2×10^5 cells) were incubated in a 96-well microtiter plate for 48 h in the presence or absence of compound or protein A. Cells were quiescent or stimulated with concanavalin A (ConA; T-cells) or pokeweed mitogen (PWM; B-cells). After incubation, cells were treated with MTT (cytotoxicity) or pulsed with 1 μCi of [^3]-thymidine (DNA synthesis), [^3H]-uridine (RNA synthesis) or [^3]-leucine (protein synthesis) for 6 h. Plates were harvested on a Tomteck and counted on a Microbeta β-counter.

For data set [3] the test system is unchanged. As to the kind of experiment: PBML DNA synthesis (thymidine). It counts as cell-based, human. The following applies: for pIC50: Homo sapiens, Leukocyte.
Description: as §1, §2

A short description of a further data set: PBML cytotoxicity (MTT). It is filed as cell-based. The following applies: human.
Description: as §1, §2

The target in data set [4] is TNFα / p75 TNFα receptor (CD120b) (Homo sapiens, UniProt P01375). Nature of the data set: Binding ELISA: TNF-α binding to plastic coated TNF-R2. The note with it: for inhibition at 100 µM: 10^−4 M; for inhibition at 10 µM: 10^−5 M. On the procedure:
(§3) Compounds were tested for their ability to bind to TNFα or inhibit the interaction of TNFα with its respective receptors; p55 and p75 TNFα receptor. Three binding ELISA assays were undertaken as described by Mancini et al. Biochemical Pharmacology 58, 851-859 (1999). TNFα or receptor (1 μg/mL) was coated on a 96-well plate Maxisorp, overnight at 4° C. After incubation, unbound TNFα or p55 TNFα receptor or p75 TNFα receptor was removed and the plate washed three times with PBS. The plate was then incubated with 100 μL/well of a 2% BSA solution for 1 h at 37° C. to block non specific protein binding. After incubation, the plate was washed three times with PBS. Biotinylated recombinant human TNFα p55 or p75 receptor or biotinylated recombinant human TNFα was added to the wells in the presence or absence of compounds. The plate was incubated for 1 h at 37° C. After incubation, the plate was washed three times with PBS to remove unbound labeled p55 or p75 receptor or recombinant human TNFα. 100 μL of avidin-HRP (diluted 1/2000 in PBS-0.1% BSA) was added to each well and incubated 1 h at 37° C. Bound p55 or p75 receptor or recombinant human TNFα was detected by the addition of 200 μL of 3,3′,5,5′-tetramethylbenzidine (TMB) per well for 15 min. The plate was then read at 655 nm on a EL 800 universal Microplate reader (Bio-Tek, Mississauga, Canada). Data was analyzed in Microsoft Excel and recorded as the percentage of inhibition of p55 or p75 binding to TNFα or TNFα binding to RI (p55) or RII (p75).

In data set [5] the test system is peripheral blood mononuclear leukocytes (PBML). Nature of the data set: PBML RNA synthesis (uridine). It is filed as cell-based, human. The note with it: for pIC50: Homo sapiens, Leukocyte.
Description: as §1, §2

For data set [6], the target named is TNFα / p55 TNFα receptor (CD120a) (Homo sapiens, UniProt P01375). Nature of the data set: Binding ELISA: TNF-α binding to plastic coated TNF-R1. The following applies: for inhibition at 100 µM: 10^−4 M; for inhibition at 10 µM: 10^−5 M. As to the method: as §3
Sequence of TNFα / p55 TNFα receptor (CD120a) (P01375 77-233 limits assumed): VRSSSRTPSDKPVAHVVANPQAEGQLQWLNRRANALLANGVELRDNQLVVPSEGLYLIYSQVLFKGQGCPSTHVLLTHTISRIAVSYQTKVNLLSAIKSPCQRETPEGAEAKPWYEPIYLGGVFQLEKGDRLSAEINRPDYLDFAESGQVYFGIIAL
Data set [7] relates to TNFα production, J774A-1 cells. Nature of the data set: LPS-induced TNFα production in J774A-1 cells (ELISA). It is filed as cell-based. The note with it: Mus musculus, J774.A1, 24 h, read-out: IC50 (μM), inhibition of TNFα released by LPS induction. As to the method: Effect of compounds on TNFα production was measured by ELISA using J774-1 cells stimulated by LPS. J774-1 cells were cultured in the presence or absence of LPS and compound. Cells were cultured at 37° C. for 24 h and thereafter the supernatants were collected for the determination of the concentration of TNFα by ELISA as recommended by the manufacturer (BD Biosciences). Data was analyzed in Microsoft Excel and the concentration of compound which inhibits 50% of TNFα production (IC50) was calculated using Prism software.

For data set [8], the system named is TNFα-induced apoptosis, WEHI-13VAR cells. Nature of the data set: TNFα induced apoptosis in WEHI-13VAR cells (MTT). It is filed as cell-based, murine. The note with it: Mus musculus; for inhibition at 10 µM: 1 × 10^−5M; for inhibition at 20 µM: 2 × 10^−5M; for inhibition at 40 µM: 4 × 10^−5M; for inhibition at 5 µM: 5 × 10^−6M. On the procedure: Effect of compounds on TNFα-induced apoptosis was measured by a standard biological assay using WEHI-13VAR cells. These cells undergo apoptosis when they are incubated in the presence of TNFα and actinomycin D. 2×10^4 WEHI-13VAR cells were incubated in RPMI supplemented with 1% sodium pyruvate and 10% FBS, overnight at 37° C. for cell adherence. The cells were then cultured in the presence of 1 μg/mL of actinomycin D (to inhibit protein synthesis) and 0.04 nM TNFα with or without compounds at 37° C. After 16-24 h, 50 μL of a solution of 2 mg/mL of MTT was added to each well and the plate was then incubated for 4 h at 37° C. Only viable cells metabolize MTT to form formazan salt, which is detectable by the measurement of absorbance at 570 nm. After the incubation, the plate was inverted to remove medium and dead cells. 150 μL DMSO was added to each well to stop the reaction and solubilize the formazan salt. Optical density was read on a EL 800, universal Microplate reader (Bio-Tek). A decrease in the optical density is direct evidence of cell apoptosis induced by TNFα. Compounds were also compared to the activity of an anti-TNFα neutralizing antibody.

[9] abbreviates: PBS-20% DMSO, read-out: IC50 (μM): Assay in PBS-20% DMSO.
[10] abbreviates: PBS, read-out: IC50 (μM): Assay in PBS.
The mark [11] stands for this setting: resting and stimulated (ConA and PWM) PBML.

Sequence of TNFα / p75 TNFα receptor (CD120b) (P01375 77-233 limits assumed): as above

For the compound `Nc1ccc(CCNc2nc(NCCNc3nc(NCCc4ccc(N)cc4)nc(Nc4cccc(N)c4)n3)nc(Nc3cccc(N)c3)n2)cc1` [Compound 7], the IC50 in [1] (setting [9]) amounted to 0.02 µM; in data set [1] (setting [10]), 0.2 µM. Besides, the negative logarithm of the IC50 (pIC50) was 7.66 in [1] (PBS-20% DMSO, read-out: IC50 (n = 5 or 6) PBS-20% DMSO); 6.73 in data set [1] (PBS, read-out: IC50 (n = 5 or 6) PBS); less than 5.00 in data set [2] (ConA stimulated PBML); less than 5.00 in data set [2] (PWM stimulated PBML); less than 5.00 in data set [2] (Resting PBML); 5.45 in data set [3] (ConA stimulated PBML). Further, the pIC50 in data set [3] (PWM stimulated PBML) is 5.89; in data set [3] (Resting PBML), 5.44; in data set [5] (ConA stimulated PBML) it was 5.82; in data set [5] (PWM stimulated PBML) it was 5.75; in data set [5] (Resting PBML), 5.95. The “effect on DNA synthesis (in words)” value in data set [3] (setting [11]) is “suppress”. Moreover, the IC50 at 48 h in “PBML cytotoxicity (MTT)” (ConA stimulated PBML), in “PBML cytotoxicity (MTT)” (PWM stimulated PBML) and in “PBML cytotoxicity (MTT)” (Resting PBML) was more than 10 µM throughout. The inhibition at 100 µM in [4] came to 36.9%; in data set [6], 32.6%. Besides, the inhibition at 10 µM in data set [4] turned out to be 43.3%; in data set [6] it was 10.4%. In addition, the “effect on RNA synthesis (in words)” value in data set [5] (setting [11]) is “suppress”.
Take `NCCCCNc1nc(NCCc2ccc(Nc3nc(NCCc4ccc(O)cc4)nc(Nc4ccccc4)n3)cc2)nc(Nc2ccccc2)n1` [Compound 16]: the half-maximal inhibitory concentration (IC50) was found to be 55 µM in data set [1] (setting [9]), 36 µM in data set [1] (setting [10]) and 13.6 µM in data set [7].
Consider `Oc1ccc(CCNc2nc(NCCNc3nc(NCCc4ccc(O)cc4)nc(Sc4ccccc4)n3)nc(Sc3ccccc3)n2)cc1` [Compound 11b], for which the IC50 in data set [1] (setting [9]) came to 45 µM; in data set [7] it was 23.3 µM.
For the compound `Nc1ccc(CCNc2nc(Nc3ccccc3)nc(Nc3ccc(CCNc4nc(NCCO)nc(Nc5ccccc5)n4)cc3)n2)cc1` [Compound 17], the IC50 in data set [1] (setting [9]) was 12 µM; in data set [1] (setting [10]), 53 µM; in data set [7], 57.1 µM.
For `NCCNc1nc(NCCc2ccc(Oc3nc(NCCc4ccc(O)cc4)nc(Nc4ccccc4)n3)cc2)nc(Nc2ccccc2)n1` [Compound 13], in that order: 70 µM, 33 µM and 13.4 µM.
Turning to `COC(=O)c1ccccc1Nc1nc(NCCNc2nc(N)nc(NCCc3ccc(O)cc3)n2)nc(NCCc2ccc(O)cc2)n1` [Compound 3], the IC50 in data set [7] came to 28 µM. For the same compound, in data set [8], the inhibition at 10 µM turned out to be 32.7%, the inhibition at 20 µM was 44.6%, the inhibition at 40 µM is 33.9% and the inhibition at 5 µM was 0.5%.
Turning to `Nc1ccc(CCNc2nc(Nc3ccccc3)nc(N3CCN(c4nc(NCCO)nc(Nc5ccccc5)n4)CC3)n2)cc1` [Compound 33], the results for the 50% inhibitory concentration (IC50) in data set [1] (setting [9]), in data set [1] (setting [10]) and in data set [7] were 18 µM, 18 µM and 20.6 µM, respectively.
Take `CC(=O)NCCNc1nc(NCCc2ccc(Nc3nc(NCCc4ccc(O)cc4)nc(Nc4ccccc4)n3)cc2)nc(Nc2ccccc2)n1` [Compound 15]: the values for the IC50 in [1] (setting [9]) and in data set [7] were 35 µM and 14.2 µM, respectively.
In the case of `CN(C)CCCC(=O)Oc1ccc(CCNc2nc(NCCNc3nc(NCCc4ccc(OC(=O)CCCN(C)C)cc4)nc(Nc4ccccc4)n3)nc(Nc3ccccc3)n2)cc1` [Compound 12], in data set [1] (setting [9]), the half-maximal inhibitory concentration (IC50) is 39 µM. For the same compound, the IC50 in data set [1] (setting [10]) is 23 µM. Besides, in data set [4], the inhibition at 100 µM worked out at 3.8% and the inhibition at 10 µM is -30.4%. In addition, the IC50 in data set [7] is 3.4 µM. Moreover, in data set [6], the inhibition at 100 µM was -8.4% and the inhibition at 10 µM was -35.7%. Further, in data set [8], the inhibition at 10 µM was -21.1%, the inhibition at 20 µM is -28.4%, the inhibition at 40 µM is -30% and the inhibition at 5 µM was 36.9%.
As to `Oc1ccc(CCNc2nc(NCCc3ccc(Nc4nc(Nc5ccccc5)nc(N5CCNCC5)n4)cc3)nc(Nc3ccccc3)n2)cc1` [Compound 18], the IC50 was found to be 43 µM in [1] (setting [9]), 26 µM in [1] (setting [10]) and 10.2 µM in data set [7].
Turning to `Oc1ccc(CCNc2nc(Nc3ccccc3)nc(Nc3ccc(Nc4nc(NCCc5ccc(O)cc5)nc(Nc5ccccc5)n4)cc3)n2)cc1` [Compound 28], the IC50 came to 35 µM in [1] (setting [9]) and 28.8 µM in data set [7].
For `OCCNc1nc(NCCc2ccc(Oc3nc(NCCc4ccc(O)cc4)nc(Nc4ccccc4)n3)cc2)nc(Nc2ccccc2)n1` [Compound 21], the IC50 in [7] turned out to be 4.8 µM.

These data come from patent US7683061B2, “Triazine dimers for the treatment of autoimmune diseases” (ProMetic BioSciences Inc., priority 2003, dated 2010).
